# Experimental data published in US20090197955A1, “METHODS OF IMPROVING DHA DEPOSITION AND RELATED FUNCTION AND/OR DEVELOPMENT” (Monsanto Company, priority 2008, published 2009).
# Experiments:
# [1] = Heart phospholipid fatty acid composition of pigs fed SDA; assay type: in vivo; details: for Average heart DHA level, percent of total fatty acids / Average heart EPA level, percent of total fatty acids / Average heart SDA level, percent of total fatty acids: 35 days
# Method: (§1) After completion of the feeding phase, animals were slaughtered and tissues were collected for evaluation. A sample of brain was obtained by making a cup from the occipital condyle at the base of the skull to the back of the eye. A portion of the brain from the cerebral cortex, and some of the mid brain was collected. About 1 g of frozen heart or brain tissue was pulverized in a stainless steel mortar and pestle maintained at −70° C. It was then suspended in 2 mL of ice-cold saline and sonicated on ice to thoroughly disperse the tissue. The lipids were extracted with methylene chloride:methanol. The PL fractions were isolated by thin layer chromatography and methylated for 10 minutes in BF3-methanol at 100° C. After extraction of the fatty acid methyl esters (FAME) with hexane:water, their composition was analyzed in a GC2010 (Shimadzu Scientific Instruments, Columbia, Md.) using a fused silica capillary columns (SP-2560, 100 m length, 0.25 mm internal diameter, 0.25 um film thickness, Supelco, Bellefonte, Pa.). A weighed external standard fatty acid (FA) mixture (GLC727, NuCheck Prep, Elysian, Minn.) was included to correct for potential differences in FA response factors. The response factor for palmitic acid of is assumed to be 1.0. Results were expressed as a percent of total identified FA (for composition endpoints) and as mg FA/g tissue.
# [2] = Brain phospholipid fatty acid composition of pigs fed SDA; assay type: in vivo; details: for Brain phospholipid DHA, percent of total fatty acids / Brain phospholipid EPA, percent of total fatty acids / Brain phospholipid SDA, percent of total fatty acids: 35 days
# Method: as §1, with “In addition to measuring long-chain fatty acid incorporation into tissues, additional research was undertaken to understand the alterations in fatty acid concentration in the brain and heart tissues. In particular, DHA is known to be a significant fraction of brain composition. As such, the following experiments were conducted with brain matter extracted from the pigs used in the study above. After completion” for “After completion”
# [3] = Brain outer cortex lipid fatty acid analysis, control vs 0.8% SDA; assay type: in vivo, pigs
# Method: About 1 g of frozen heart or brain tissue was pulverized in a stainless steel mortar and pestle maintained at −70° C. It was then suspended in 2 mL of ice-cold saline and sonicated on ice to thoroughly disperse the tissue. The lipids were extracted with methylene chloride:methanol. […] After extraction of the fatty acid methyl esters (FAME) with hexane:water, their composition was analyzed in a GC2010 (Shimadzu Scientific Instruments, Columbia, Md.) using a fused silica capillary columns (SP-2560, 100 m length, 0.25 mm internal diameter, 0.25 um film thickness, Supelco, Bellefonte, Pa.). A weighed external standard fatty acid (FA) mixture (GLC727, NuCheck Prep, Elysian, Minn.) was included to correct for potential differences in FA response factors. The response factor for palmitic acid of is assumed to be 1.0. Results were expressed as a percent of total identified FA (for composition endpoints) and as mg FA/g tissue. To further explore the effect of SDA on brain tissue composition, samples from the four control and four high dose (Treatment 5) animals were shaved to isolate the outer cortex. This was done to test the hypothesis that white, myelinated tissue found in the mid brain may not accumulate DHA as readily as gray matter in the cerebral cortex.
# [4] = prior studies; cited from earlier work
# [5] = 0.8% SDA (Treatment 5), average
smiles,measurement,setting,value
"CC/C=C\C/C=C\C/C=C\C/C=C\CCCCC(=O)O [SDA, stearidonic acid]","Average heart DHA level, percent of total fatty acids",[1]; SDA 0.2%,0.49%
same,"Average heart EPA level, percent of total fatty acids",[1]; SDA 0.2%,1.82%
same,"Average heart SDA level, percent of total fatty acids",[1]; SDA 0.2%,0.05%
same,"Average heart DHA level, percent of total fatty acids",[1]; SDA 0.4%,0.42%
same,"Average heart EPA level, percent of total fatty acids",[1]; SDA 0.4%,3.86%
same,"Average heart SDA level, percent of total fatty acids",[1]; SDA 0.4%,0.13%
same,"Average heart DHA level, percent of total fatty acids",[1]; SDA 0.6%,0.57%
same,"Average heart EPA level, percent of total fatty acids",[1]; SDA 0.6%,4.83%
same,"Average heart SDA level, percent of total fatty acids",[1]; SDA 0.6%,0.19%
same,"Average heart DHA level, percent of total fatty acids",[1]; SDA 0.8%,0.62%
same,"Average heart EPA level, percent of total fatty acids",[1]; SDA 0.8%,6.71%
same,"Average heart SDA level, percent of total fatty acids",[1]; SDA 0.8%,0.36%
same,"Dose response for deposition of SDA, EPA and DHA in heart phospholipids",[1]; regression analysis on the mean response at each dose level,statistically significant (p<0.05)
same,"Brain phospholipid DHA, percent of total fatty acids",[2]; SDA 0.2%,10.07%
same,"Brain phospholipid EPA, percent of total fatty acids",[2]; SDA 0.2%,0.02%
same,"Brain phospholipid SDA, percent of total fatty acids",[2]; SDA 0.2%,0.01%
same,"Brain phospholipid DHA, percent of total fatty acids",[2]; SDA 0.4%,9.15%
same,"Brain phospholipid EPA, percent of total fatty acids",[2]; SDA 0.4%,0.04%
same,"Brain phospholipid SDA, percent of total fatty acids",[2]; SDA 0.4%,0.01%
same,"Brain phospholipid DHA, percent of total fatty acids",[2]; SDA 0.6%,10.99%
same,"Brain phospholipid EPA, percent of total fatty acids",[2]; SDA 0.6%,0.06%
same,"Brain phospholipid SDA, percent of total fatty acids",[2]; SDA 0.6%,0.01%
same,"Brain phospholipid DHA, percent of total fatty acids",[2]; SDA 0.8%,11.21%
same,"Brain phospholipid EPA, percent of total fatty acids",[2]; SDA 0.8%,0.06%
same,"Brain phospholipid SDA, percent of total fatty acids",[2]; SDA 0.8%,0.01%
same,Deposition of EPA and DHA in the brain,[2]; SDA feeding,dose response deposition of EPA and DHA in the brain
same,"C14:0, brain outer cortex",[3]; [5],0.50%
same,"C16:0, brain outer cortex",[3]; [5],24.20%
same,"C16:1n7, brain outer cortex",[3]; [5],1.05%
same,"C16:1n7t, brain outer cortex",[3]; [5],0.28%
same,"C18:0, brain outer cortex",[3]; [5],16.53%
same,"C18:1n9, brain outer cortex",[3]; [5],19.14%
same,"C18:1t, brain outer cortex",[3]; [5],0.08%
same,"C18:2n6, brain outer cortex",[3]; [5],0.63%
same,"C18:2n6t, brain outer cortex",[3]; [5],0.23%
same,"C18:3n3, brain outer cortex",[3]; [5],0.15%
same,"C18:3n6, brain outer cortex",[3]; [5],0.02%
same,"C18:4n3, brain outer cortex",[3]; [5],0.02%
same,"C20:1n9, brain outer cortex",[3]; [5],0.23%
same,"C20:2n6, brain outer cortex",[3]; [5],0.06%
same,"C20:3n6, brain outer cortex",[3]; [5],0.35%
same,"C20:4n6, brain outer cortex",[3]; [5],11.48%
same,"C20:5n3, brain outer cortex",[3]; [5],0.15%
same,"C22:4, brain outer cortex",[3]; [5],2.90%
same,"C22:5n3, brain outer cortex",[3]; [5],0.98%
same,"C22:5n6, brain outer cortex",[3]; [5],3.58%
same,"C22:6n3, brain outer cortex",[3]; [5],17.38%
same,"C24:0, brain outer cortex",[3]; [5],0.02%
same,"C24:1n9, brain outer cortex",[3]; [5],0.05%
same,"OMX-3 (Omega 3 Index, sum of EPA and DHA), brain outer cortex",[3]; [5],17.53%
same,DHA and EPA in total lipid extract of the outer cortex region,[3]; Treatment 5 vs control,increase in DHA and EPA
same,DHA concentrations in blood or tissues after feeding SDA,[4],failed to find evidence of increased DHA concentrations
